The source of these data is US20070249717A1, “PREVENTIVE/THERAPEUTIC AGENT FOR VISCERAL PAIN” (AJINOMOTO CO. INC, priority 2004, published 2007).

For assay [1], the target named is T1, GABAB receptor (Cavia porcellus, UniProt A0A286X9P6).
T1 construct: The ileum was isolated from a guinea pig; from tissue; host or cells: isolated guinea pig ileum
In words: Action on GABAB receptor: electrically stimulated contraction of isolated guinea pig ileum. Particulars: for contraction (%): ileum contraction by electric stimulation calculated as 100%. The class given is cell-based. Here is the method: A test for GABAB receptor was performed according to the method reported by Kerr et al. (Kerr, D. I. B. Ong, J., Johnston, G. A. R. Abbenante, J. and Prager, R. H. (1988) 2-hydroxy-saclofen: an improved antagonist at central and peripheral GABAB receptors. Neurosci. Lett. 92: 92-96). The ileum was isolated from a guinea pig. […]
In Table 1, the ileum contraction by electric stimulation was calculated as 100%.

Assay [2] addresses T2, NK2 receptor (Oryctolagus cuniculus, UniProt P79218).
T2 construct: The pulmonary artery was isolated from a rabbit; from tissue; host or cells: isolated rabbit pulmonary artery
T2 sequence (P79218 1-384): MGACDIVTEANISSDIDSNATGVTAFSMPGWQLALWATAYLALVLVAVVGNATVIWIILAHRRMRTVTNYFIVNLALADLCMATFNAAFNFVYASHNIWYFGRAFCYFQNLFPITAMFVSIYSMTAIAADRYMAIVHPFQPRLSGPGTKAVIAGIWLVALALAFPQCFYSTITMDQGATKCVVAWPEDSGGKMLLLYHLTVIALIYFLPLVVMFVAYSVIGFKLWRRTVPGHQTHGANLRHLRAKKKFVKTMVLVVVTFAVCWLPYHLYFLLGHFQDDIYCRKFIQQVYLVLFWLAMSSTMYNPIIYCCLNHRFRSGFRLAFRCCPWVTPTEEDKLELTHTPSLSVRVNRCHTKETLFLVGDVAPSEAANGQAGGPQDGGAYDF
As to the kind of experiment: Action on NK2 receptor: [βAla^8]NKA(4-10)-induced contraction of isolated rabbit pulmonary artery. The class given is cell-based. Here is the method:
A test for NK2 receptor was performed according to the method reported by Emonds et al. (Emonds-Alt X., Advenier, C., Croco, T. Manara, L., Neliat, G., Poncelet, M., Proietto, V., Santucci, V., Soubrie, P., Van Broeck, D., Vilain, P., Le Fur, G. and Breliere, J. C. (1993) SR 48968, a neurokinin A (NK2) receptor antagonist Regul. Peptides. 46: 31-36). The pulmonary artery was isolated from a rabbit. The isolated tissue was hung in a solution of buffer (NaCl 118.0, KCl 4.7, MgSO4 1-2, CaCl2 2.5, KH2PO41.2, NaHCO3 25, glucose 11.0 (pH 7 4) (unit:mM) 37° C.) aerated with oxygen (95% oxygen, 5% carbon dioxide), added with benexytramine (1 μM, a receptor antagonist), propranolol (1 μM, β receptor antagonist), pyrilamine (1 μM, histamine H1 receptor antagonist), atropine (1 μM, muscarinic receptor antagonist) and metiserglde (1 μM, 5-HT2 receptor antagonist). After 60 min or more, lysine (0.3, 3, 30 mM) was added to the buffer, and the contraction of the pulmonary artery due to [βAla^8]NKA(4-10) was measured.
In Table 2, the pulmonary artery contraction by [βAla^8]NKA(4-10) was calculated as 100%.

Assay [3] deals with 5-HT4 receptor. Particulars: cited from earlier work.
Assay [4] has as its system wrap stress rat model. To be noted: in vivo; cited from earlier work.
In assay [5] the test system is stress-induced colon distension rat model (visceral pain). As to the kind of experiment: Visceral perceptual threshold in stress-induced colon distension visceral pain rat model. Particulars: for visceral perceptual threshold that decreased due to the stress: stressed SD rat, from 10 min after administration, Dunnett's test.

T1 sequence (A0A286X9P6 30-844): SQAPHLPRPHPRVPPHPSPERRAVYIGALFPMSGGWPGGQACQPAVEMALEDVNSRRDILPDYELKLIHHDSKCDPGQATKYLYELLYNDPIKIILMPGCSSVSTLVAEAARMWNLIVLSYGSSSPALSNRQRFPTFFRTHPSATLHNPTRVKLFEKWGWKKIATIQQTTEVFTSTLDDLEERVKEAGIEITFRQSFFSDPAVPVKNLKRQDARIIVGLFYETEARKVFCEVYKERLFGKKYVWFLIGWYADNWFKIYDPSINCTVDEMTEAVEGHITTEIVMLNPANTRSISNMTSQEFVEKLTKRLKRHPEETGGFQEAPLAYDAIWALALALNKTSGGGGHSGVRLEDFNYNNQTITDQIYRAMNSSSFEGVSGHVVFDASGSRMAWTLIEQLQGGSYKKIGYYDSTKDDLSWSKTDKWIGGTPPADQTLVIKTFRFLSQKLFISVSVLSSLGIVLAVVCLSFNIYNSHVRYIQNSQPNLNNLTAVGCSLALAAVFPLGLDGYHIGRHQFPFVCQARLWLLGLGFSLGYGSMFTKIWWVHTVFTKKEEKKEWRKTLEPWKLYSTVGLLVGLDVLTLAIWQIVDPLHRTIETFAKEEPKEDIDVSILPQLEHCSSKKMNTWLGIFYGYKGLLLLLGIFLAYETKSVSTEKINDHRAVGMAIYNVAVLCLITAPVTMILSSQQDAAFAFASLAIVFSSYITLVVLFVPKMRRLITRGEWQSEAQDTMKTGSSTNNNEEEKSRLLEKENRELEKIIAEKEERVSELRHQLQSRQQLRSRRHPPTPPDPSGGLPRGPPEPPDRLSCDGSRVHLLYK
T1 sequence (H0V741 1-820 partner): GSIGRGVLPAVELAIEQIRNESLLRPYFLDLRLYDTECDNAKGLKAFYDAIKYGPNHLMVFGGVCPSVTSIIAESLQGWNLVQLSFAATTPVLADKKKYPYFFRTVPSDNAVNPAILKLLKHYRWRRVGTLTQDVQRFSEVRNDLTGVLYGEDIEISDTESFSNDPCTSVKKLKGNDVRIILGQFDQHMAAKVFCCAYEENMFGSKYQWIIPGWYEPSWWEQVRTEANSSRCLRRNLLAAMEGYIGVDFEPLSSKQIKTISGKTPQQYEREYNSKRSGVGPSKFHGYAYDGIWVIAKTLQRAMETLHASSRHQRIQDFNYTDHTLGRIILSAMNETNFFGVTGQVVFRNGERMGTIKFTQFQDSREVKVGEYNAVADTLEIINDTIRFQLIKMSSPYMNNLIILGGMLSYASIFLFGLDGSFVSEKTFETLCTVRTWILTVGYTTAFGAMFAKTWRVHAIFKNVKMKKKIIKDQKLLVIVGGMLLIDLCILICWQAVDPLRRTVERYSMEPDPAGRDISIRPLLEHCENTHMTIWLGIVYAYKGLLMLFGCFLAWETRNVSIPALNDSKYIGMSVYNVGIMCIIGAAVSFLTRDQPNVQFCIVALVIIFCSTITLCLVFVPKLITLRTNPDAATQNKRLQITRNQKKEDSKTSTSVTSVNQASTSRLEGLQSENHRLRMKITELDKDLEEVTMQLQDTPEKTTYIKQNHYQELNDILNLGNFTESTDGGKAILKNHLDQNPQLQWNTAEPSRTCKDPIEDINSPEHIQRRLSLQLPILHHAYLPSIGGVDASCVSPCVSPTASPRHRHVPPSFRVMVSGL

For `NCCCC[C@H](N)C(=O)O` [lysine], the “contraction (%)” value is given as 0% in assay [1] (0.3 mM); −20% in assay [1] (3.0 mM); −77% in assay [1] (30 mM); 85% in assay [2] (0.3 mM, contraction by [βAla^8]NKA(4-10) calculated as 100%); 41% in assay [2] (3.0 mM, contraction by [βAla^8]NKA(4-10) calculated as 100%); 19% in assay [2] (30 mM, contraction by [βAla^8]NKA(4-10) calculated as 100%). Also, the “ileum contraction via GABAB receptor” value in assay [1] (0.3-30, isolated guinea pig ileum) is “suppressed the ileum contraction via GABAB receptor, in a dose-dependent manner”. In assay [2] (0.3-30 mM, isolated rabbit pulmonary artery), the “pulmonary artery contraction via NK2 receptor” value was “suppressed the pulmonary artery contraction via NK2 receptor, in a dose-dependent manner”. The “action at 5-HT4 receptor” value in assay [3] is reported as 5-HT4 receptor antagonist. The “effect on wrap stress rat model” value in assay [4] is “treatment effect”. Moreover, the “time for which significant increase of visceral perceptual threshold was observed” value in assay [5] (1 g/kg or 3 g/kg orally) is on record as “about 2 hr”. Moreover, the “visceral perceptual threshold that decreased due to the stress” value in assay [5] (1 g/kg orally) and in assay [5] (3 g/kg orally) was “significantly increased” throughout.
On to [βAla^8]NKA(4-10) [reference compound], for which, in assay [2] (3 × 10^−4 mM, agonist alone, reference set as 100%), the “contraction (%)” value came to 100%.
